The values below come from ChEMBL document CHEMBL1141905, “3,4-disubstituted azetidinones as selective inhibitors of the cysteine protease cathepsin K. Exploring P3 elements for potency and selectivity” (Bioorg Med Chem Lett, 2005).

Series [1] concerns the target T1, Cathepsin K (Oryctolagus cuniculus) (UniProt P43236).
T1 sequence (whole entry): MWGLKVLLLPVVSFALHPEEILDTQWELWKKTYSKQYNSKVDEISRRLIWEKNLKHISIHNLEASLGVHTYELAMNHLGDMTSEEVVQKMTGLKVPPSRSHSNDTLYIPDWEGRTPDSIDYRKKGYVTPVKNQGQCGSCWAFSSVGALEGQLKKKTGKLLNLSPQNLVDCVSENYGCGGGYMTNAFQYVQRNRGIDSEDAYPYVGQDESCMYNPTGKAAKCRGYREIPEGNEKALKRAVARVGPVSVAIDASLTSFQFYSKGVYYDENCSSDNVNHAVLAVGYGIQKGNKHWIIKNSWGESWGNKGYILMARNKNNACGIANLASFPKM
Kind of series: Apparent inhibitory constant against rabbit cathepsin K.

Series [2] deals with Procathepsin L (Homo sapiens) (UniProt P07711).
For series [3], the target named is Cathepsin S (Homo sapiens) (UniProt P25774). Kind of series: Apparent inhibitory constant against human cathepsin S.
Series [4] has as its target Cathepsin B (Homo sapiens) (UniProt P07858). Nature of the series: Apparent inhibitory constant against human cathepsin B.
Series [5] can be described thus: Beta half life period. The format is ADME.
Series [6] is described as follows: Alpha half life period. The format is ADME.
Series [7] can be described thus: Clearance following intravenous administration evaluated as high. The format is ADME, organism-based. The note with it: in vivo.
Series [8] in a line: Volume of distribution following intravenous administration evaluated as moderate. The format is ADME, organism-based. The note with it: in vivo.
Series [9] in a line: Mean residence time by intravenous administration. The note with it: in vivo. The format is ADME, organism-based.

Chain of Cathepsin S (Homo sapiens) (P25774 115-331 limits assumed): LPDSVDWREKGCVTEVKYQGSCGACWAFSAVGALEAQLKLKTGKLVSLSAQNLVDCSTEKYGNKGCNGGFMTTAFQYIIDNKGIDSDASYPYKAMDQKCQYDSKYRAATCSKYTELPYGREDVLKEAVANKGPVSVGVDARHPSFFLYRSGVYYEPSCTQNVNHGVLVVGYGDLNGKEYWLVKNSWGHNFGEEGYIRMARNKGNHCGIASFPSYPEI
Chain of Procathepsin L (Homo sapiens) (P07711 114-333 limits assumed): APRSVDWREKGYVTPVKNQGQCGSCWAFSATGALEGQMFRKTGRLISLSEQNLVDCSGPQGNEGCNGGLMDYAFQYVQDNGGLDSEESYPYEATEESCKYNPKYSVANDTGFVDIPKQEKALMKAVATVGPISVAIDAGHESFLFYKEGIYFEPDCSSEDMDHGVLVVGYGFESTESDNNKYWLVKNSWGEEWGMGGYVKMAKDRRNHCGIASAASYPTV

For `CSc1ccc(C(=O)NC2(C(=O)N[C@@H]3C(=O)N[C@H]3OC(C)=O)CCCCC2)cc1`, the Ki'' in [1] amounted to 0.012 µM; in [2], 6.4 µM; in series [3] it was 3.5 µM; in [4], 1.2 µM.
Turning to `CC(=O)O[C@@H]1NC(=O)[C@H]1NC(=O)C1(NC(=O)c2ccc(-c3csc(CN4CCOCC4)n3)cc2)CCCCC1`, the Ki'' amounted to 0.0075 µM in series [1], 11 µM in [2], 12 µM in series [3] and 1.7 µM in [4].
Consider `CC(=O)O[C@@H]1NC(=O)[C@H]1NC(=O)C1(NC(=O)c2ccc(-c3csc(NN4CCN(C)CC4)n3)cc2)CCCCC1`, for which the Ki'' was 0.00025 µM in series [1], 2.1 µM in series [2], 8.8 µM in series [3] and 0.091 µM in [4].
The matching figures for `CC(=O)O[C@@H]1NC(=O)[C@H]1NC(=O)C1(NC(=O)c2ccc(N3CCN(C)CC3)cc2)CCCCC1`: 0.0011 µM, 1.4 µM, 8.8 µM and 0.49 µM.
The matching figures for `CN1CCN(Nc2nc(-c3ccc(C(=O)NC4(C(=O)N[C@@H]5C(=O)N[C@H]5Oc5ccccc5)CCCCC4)cc3)cs2)CC1`: 0.00026 µM, 0.31 µM, 140 µM and 6 µM.
Regarding `CC(=O)O[C@@H]1NC(=O)[C@H]1NC(=O)C1(NC(=O)c2ccc(-c3csc(N4CCN(C)CC4)n3)cc2)CCCCC1`, the Ki'' is 0.0011 µM in series [1], 3.3 µM in series [2], 8.5 µM in series [3] and 0.94 µM in series [4].
In the case of `CC(=O)O[C@@H]1NC(=O)[C@H]1NC(=O)C1(NC(=O)c2ccc(N(C)C)cc2)CCCCC1`, the Ki'' came out at 0.0031 µM in [1], 2.1 µM in series [2], 2.8 µM in series [3] and 0.53 µM in series [4].
Turning to `CN1CCN(Nc2nc(-c3ccc(C(=O)NC4(C(=O)N[C@@H]5C(=O)N[C@@H]5Oc5ccccc5)CCCCC4)cc3)cs2)CC1`, the Ki'' is 0.0082 µM in series [1], 0.0082 µM in [2], 150 µM in series [3] and 5.2 µM in series [4].
Regarding `CC(=O)O[C@@H]1NC(=O)[C@H]1NC(=O)C1(NC(=O)c2ccc(-c3csc(N(C)C)n3)cc2)CCCCC1`, the Ki'' worked out at 0.0026 µM in series [1], 0.39 µM in series [2], 7.7 µM in series [3] and 1.4 µM in series [4].
`CN(C)c1nc(-c2ccc(C(=O)NC3(C(=O)N[C@@H]4C(=O)N[C@H]4Oc4ccccc4)CCCCC3)cc2)cs1`: the Ki'' turned out to be 0.018 µM in series [1], 0.089 µM in series [2], 10 µM in [3] and 25 µM in series [4].
For `CC(=O)O[C@@H]1NC(=O)[C@H]1NC(=O)C1(NC(=O)OCc2ccccc2)CCCCC1`, in that order: 0.057 µM, 6.8 µM, 0.95 µM and 4.3 µM.
On to `CC(=O)O[C@@H]1NC(=O)[C@H]1NC(=O)C1(NC(=O)c2ccc(N3CCOCC3)cc2)CCCCC1`, for which the Ki'' stood at 0.005 µM in series [1], 19 µM in series [2], 14 µM in series [3] and 0.98 µM in [4].
The matching figures for `CC(=O)O[C@@H]1NC(=O)[C@H]1NC(=O)C1(NC(=O)c2ccc(Cl)cc2)CCCCC1`: 0.092 µM, 8.2 µM, 3.4 µM and 2.1 µM.
By half-life is commonly meant the time needed for the level to fall by half in the phase considered. What is called clearance is the rate of elimination divided by the concentration. The low end stands for inefficient removal, the high end for efficient removal. As usually defined, the Vd is a proportionality between amount in the body and measured concentration, not a real space. A lower Vd goes with little distribution into tissue. The term MRT denotes the average time that molecules of a dose stay in the body. As to `CN1CCN(c2nc(-c3ccc(C(=O)NC4(C(=O)N[C@@H]5C(=O)N[C@@H]5Oc5ccccc5)CCCCC4)cc3)cs2)CC1`, the values for the half-life in series [5] and in series [6] were 21 min and 2 min, respectively. Besides, the clearance in series [7] is 92 mL/min/kg. The compound also came in with a Vd in series [8] of 1.6 L/kg. This compound also gave a mean residence time MRT in series [9] of 17 min.
